Reference: patent publication US4250176A, “Piperazine derivatives” (priority 1979, dated 1981)
≈ marks a conversion by molar mass, not a printed value. Structures can show the parent of a compound that is named as a salt. Where two headings read alike, the source gives them in different places. Blank lines part the entries; values can stand above or below the compound they belong to.

Columns and labels:
[1] = tested on: Guinea pigs sensitized to ovalbumin (anaphylactic shock); test: Anaphylaxis in guinea pigs: protection against death after ovalbumin challenge (survival); type: in vivo, guinea pig; details: Cavia porcellus, estimated ED50, oral, protection against death after i.v. 0.6 mg ovalbumin, read-out: Anaphylaxis in guinea pigs oral effective dose in mg/kg: Survival
Procedure: The anti-anaphylactic and antihistaminic effects of the subject compounds (I) and salts thereof are studied "in vivo" in guinea pigs.
(§1) Guinea pigs, weighing between 400 and 500 g, are sensitized to ovalbumin by subplantar (s.p.) injection of 0.05 ml of antiserum in the left hind paw. The animals are then starved and orally treated, 24 hours after the sensitization, with saline (=control animals) or a particular dose of the compound under investigation.
The histamine injection (at a dose of 50 μg) was given s.p. in the right hind paw 2 hours after the oral pretreatment with the compound. The diameters of both hind paws are first measured before the histamine injection is given and again 10 minutes thereafter. The animals are challenged intravenously with 0.6 mg of ovalbumin 30 minutes after the histamine injection. All control animals develop typical primary anaphylactic shock symptoms (coughing, difficult breathing, convulsions) and 85% of these control animals die within 15 minutes after the ovalbumin injection. Protection against death is used as the criterion for possible drug effects and the estimated ED50 -value, i.e. the oral dose whereby the protection is observed in 50% of the guinea pigs, is listed in the tables below.

[2] = tested on: histamine paw oedema in guinea pigs; test: Histamine paw oedema in guinea pigs; type: in vivo, guinea pig; details: Cavia porcellus, oral dose giving paw reaction below 10 units 10 minutes after 50 μg histamine s.p., 2 hours after dosing, read-out: Anaphylaxis in guinea pigs oral effective dose in mg/kg: Histamine oedema
Procedure: as §1, with “investigation. The histamine injection (at a dose of 50 μg) was given s.p. in the right hind paw 2 hours after the oral pretreatment with the compound.” for “investigation.”

[3] = tested on: Guinea-pig ileum strips, histamine-induced contraction; test: Anti-histamine activity in "vitro": histamine-induced spasms of guinea-pig ileum strips; type: cell-based; details: Cavia porcellus, 5 min, histamine 0.5 mg/liter, 5 minutes incubation, concentration giving significant inhibition (50%) of the contraction
Procedure: The histamine--(0.5 mg/liter) induced spasms are recorded Kymographically with an isotonic lever giving a 5-fold magnification.

[4] = Table I-a, read-out: Histamine in "vitro" (ileum) effective conc.
[5] = Table I-b, read-out: Histamine in "vitro" (ileum) effective conc.
[6] = Table I-e, read-out: Histamine in "vitro" (ileum) effective dose

Structure (SMILES): Cc1ccc(C(c2ccccc2)N2CCN(CCCn3c(=O)[nH]c4ccccc43)CC2)cc1 (stereo not drawn) [1,3-dihydro-1-[3-{4-[(4-methylphenyl)phenylmethyl]-1-piperazinyl}-propyl}-2H-benzimidazol-2-one]
ED50 ([1]; Table I-a): < 2.5 mg/kg
minimal effective dose ([2]; Table I-a): < 2.5 mg/kg
IC50 [3, 4]: 0.08 µg/mL (≈ 0.182 µM)

Structure (SMILES): O=c1[nH]c2ccccc2n1CCCN1CCN(C(c2ccccc2)c2ccc([N+](=O)[O-])cc2)CC1 (stereo not drawn) [1,3-dihydro-1-[3-{4-[(4-nitrophenyl)phenylmethyl]-1-piperazinyl}propyl]-2H-benzimidazol-2-one]
ED50 ([1]; Table I-a): < 2.5 mg/kg
minimal effective dose ([2]; Table I-a): < 2.5 mg/kg
IC50 [3, 4]: 0.16 µg/mL (≈ 0.339 µM)

Structure (SMILES): O=c1[nH]c2ccccc2n1CCN1CCC(OC(c2ccc(F)cc2)c2ccc(F)cc2)CC1 [1-[2-{4-[bis(4-fluorophenyl)methoxy]-1-piperidinyl}ethyl]-1,3-dihydro-2H-benzimidazol-2-one hydrochloride.hemihydrate]
ED50 ([1]; Table I-d): 0.31 mg/kg
minimal effective dose ([2]; Table I-d): 0.31 mg/kg
IC50 ([3]; Table I-d, read-out: Histamine in "vitro" (ileum) effective dose): 0.0025 µg/mL

Structure (SMILES): O=c1[nH]c2ccccc2n1CCN1CCN(C(c2ccc(F)cc2)c2ccc(F)cc2)CC1 [1-[2-{4-[bis(4-fluorophenyl)methyl]-1-piperazinyl}ethyl]-1,3-dihydro-2H-benzimidazol-2-one hemihydrate]
ED50 ([1]; Table I-a): 0.63 mg/kg
minimal effective dose ([2]; Table I-a): 0.63 mg/kg
IC50 [3, 4]: 0.02 µg/mL

Structure (SMILES): O=c1[nH]c2ccccc2n1CCN1CCN(C(c2ccccc2)c2ccc(F)cc2)CC1 (stereo not drawn) [1-[2-{4-[α-(4-fluorophenyl)-α-phenylmethyl]-1-piperazinyl}ethyl]-1,3-dihydro-2H-benzimidazol-2-one]
ED50 ([1]; Table I-a): 0.31 mg/kg
minimal effective dose ([2]; Table I-a): 0.16 mg/kg
IC50 [3, 4]: 0.02 µg/mL (≈ 0.0465 µM)

IC50 [3, 4]: 0.08 µg/mL (≈ 0.174 µM)
Structure (SMILES): O=c1[nH]c2ccccc2n1CCCN1CCN(C(c2ccccc2)c2ccccc2Cl)CC1 (stereo not drawn) [1-[3-{4-[(2-chlorophenyl)phenylmethyl]-1-piperazinyl}-propyl]-1,3-dihydro-2H-benzimidazol-2-one]

Structure (SMILES): O=c1[nH]c2ccccc2n1CCCN1CCN(C(c2ccccc2)c2ccccc2F)CC1 (stereo not drawn) [1-[3-{4-[(2-fluorophenyl)phenylmethyl]-1-piperazinyl}propyl]-1,3-dihydro-2H-benzimidazol-2-one]
ED50 ([1]; Table I-a): < 2.5 mg/kg
minimal effective dose ([2]; Table I-a): < 2.5 mg/kg
IC50 [3, 4]: 0.02 µg/mL (≈ 0.045 µM)

Structure (SMILES): O=c1[nH]c2ccccc2n1CCCN1CCN(C(c2ccccc2)c2ccc(Br)cc2)CC1 (stereo not drawn) [1-[3-{4-[(4-bromophenyl)phenylmethyl]-1-piperazinyl}propyl]-1,3-dihydro-2H-benzimidazol-2-one]
ED50 ([1]; Table I-a): < 2.5 mg/kg
minimal effective dose ([2]; Table I-a): < 2.5 mg/kg
IC50 [3, 4]: 0.16 µg/mL (≈ 0.317 µM)

IC50 [3, 5]: 0.02 µg/mL
Structure (SMILES): CC(CN1CCN(C(c2ccccc2)c2ccccc2)CC1)Cn1cnc2ccccc21 (stereo not drawn) [1-{3-[4-(diphenylmethyl)-1-piperazinyl]-2-methylpropyl}-1H-benzimidazole trihydrochloride.hemihydrate]

IC50 [3, 4]: 0.02 µg/mL (≈ 0.0414 µM)
Structure (SMILES): CNC(=O)n1c(=O)n(CCCN2CCN(C(c3ccccc3)c3ccccc3)CC2)c2ccccc21 [3-{3-[4-(diphenylmethyl)-1-piperazinyl]propyl}-2,3-dihydro-N-methyl-2-oxo-1H-benzimidazole-1-carboxamide]

Structure (SMILES): O=c1[nH]c2cccc(Cl)c2n1CCCN1CCN(C(c2ccccc2)c2ccccc2)CC1 [4-chloro-3-{3-[4-(diphenylmethyl)-1-piperazinyl]propyl}-1,3-dihydro-2H-benzimidazol-2-one]
ED50 ([1]; Table I-a): ≥ 2.5 mg/kg
IC50 [3, 4]: 0.08 µg/mL (≈ 0.174 µM)

IC50 [3, 4]: 0.08 µg/mL
Structure (SMILES): O=c1n(CCCN2CCN(C(c3ccccc3)c3ccccc3)CC2)c2ccc(Cl)cc2n1-c1ccccc1 [5-chloro-1-{3-[4-(diphenylmethyl)-1-piperazinyl]propyl}-1,3-dihydro-3-phenyl-2H-benzimidazol-2-one dihydrochloride.hemihydrate]

Structure (SMILES): Clc1ccc2c(c1)nc(Cc1ccccc1)n2CCCN1CCN(C(c2ccccc2)c2ccccc2)CC1 [5-chloro-1-{3-[4-(diphenylmethyl)-1-piperazinyl]propyl}-2-(phenylmethyl)-1H-benzimidazole trihydrochloride.hydrate]
ED50 ([1]; Table I-b): 2.5 mg/kg

Structure (SMILES): Clc1ccc2c(c1)nc(C1CCCCC1)n2CCCN1CCN(C(c2ccccc2)c2ccccc2)CC1 [5-chloro-2-cyclohexyl-1-{5-[4-diphenylmethyl)-1-piperazinyl]propyl}-1H-benzimidazole]
ED50 ([1]; Table I-b): 0.63 mg/kg
minimal effective dose ([2]; Table I-b): 2.5 mg/kg

Structure (SMILES): Clc1ccc2nc(C3CCCCC3)n(CCCN3CCN(C(c4ccccc4)c4ccccc4)CC3)c2c1 [6-chloro-2-cyclohexyl-1-[3-[4-(diphenylmethyl)-1-piperazinyl]propyl}-1H-benzimidazole]
ED50 ([1]; Table I-b): 2.5 mg/kg

IC50 [3, 5]: 0.01 µg/mL
Structure (SMILES): CCc1nc2cc(Cl)ccc2n1CCCN1CCN(C(c2ccccc2)c2ccccc2)CC1 [I-b: M=C2H5, R1=5-Cl, (CH2)3, R6=H, R7=H, 5-chloro-1-{3-[4-(diphenylmethyl)-1-piperazinyl]propyl}-2-ethyl-1H-benzimidazole trihydrochloride.hydrate]

IC50 [3, 5]: ≥ 0.16 µg/mL
Structure (SMILES): CCc1nc2ccccc2n1CCN1CCN(C(c2ccccc2)c2ccccc2)CC1 [I-b: M=C2H5, R1=H, (CH2)2, R6=H, R7=H, 1-{2-[4-(diphenylmethyl)-1-piperazinyl]ethyl}-2-ethyl-1H-benzimidazole trihydrochloride.hydrate]

Structure (SMILES): Clc1ccc2nc(-c3ccccc3)n(CCCN3CCN(C(c4ccccc4)c4ccccc4)CC3)c2c1 [I-b: M=C6H5, R1=6-Cl, (CH2)3, R6=H, R7=H, 6-chloro-1-{3-[4-(diphenylmethyl)-1-piperazinyl]propyl}-2-phenyl-1H-benzimidazole]
ED50 ([1]; Table I-b): 2.5 mg/kg

IC50 [3, 5]: 0.08 µg/mL (≈ 0.164 µM)
Structure (SMILES): c1ccc(-c2nc3ccccc3n2CCCN2CCN(C(c3ccccc3)c3ccccc3)CC2)cc1 [I-b: M=C6H5, R1=H, (CH2)3, R6=H, R7=H, 1-{3-[4-(diphenylmethyl)-1-piperazinyl]propyl}-2-phenyl-1H-benzimidazole]

IC50 [3, 5]: ≥ 0.16 µg/mL
Structure (SMILES): c1ccc(Cc2nc3ccccc3n2CCCN2CCN(C(c3ccccc3)c3ccccc3)CC2)cc1 [I-b: M=C6H5CH2, R1=H, (CH2)3, R6=H, R7=H, 1-{3-[4-(diphenylmethyl)-1-piperazinyl]propyl}-2-(phenylmethyl)-1H-benzimidazole trihydrochloride.trihydrate]

Structure (SMILES): CC(=O)N=c1[nH]c2ccccc2n1CCCN1CCN(C(c2ccccc2)c2ccccc2)CC1 [I-b: M=CH3CONH, R1=H, (CH2)3, R6=H, R7=H, N-[1-{3-[4-(diphenylmethyl)-1-piperazinyl]propyl}-1,3-dihydro-2H-benzimidazol-2-ylidene]acetamide]
ED50 ([1]; Table I-b): 2.5 mg/kg
IC50 [3, 5]: ≥ 0.16 µg/mL

IC50 [3, 6]: 0.16 µg/mL (≈ 0.359 µM)
Structure (SMILES): O=c1[nH]c2ccccc2n1CCCN1CCN(C(c2ccncc2)c2ccc(F)cc2)CC1 (stereo not drawn) [I-e: Ar1=4-FC6H4, Ar2=4-pyridinyl, 1-[3-{4-[(4-fluorophenyl)(4-pyridinyl)methyl]-1-piperazinyl}propyl]-1,3-dihydro-2H-benzimidazol-2-one]
minimal effective dose ([2]; Table I-e): ≤ 2.5 mg/kg

IC50 [3, 6]: 0.16 µg/mL (≈ 0.352 µM)
Structure (SMILES): Cc1ccc(C)c(C(c2ccccc2)N2CCN(CCCn3c(=O)[nH]c4ccccc43)CC2)c1 (stereo not drawn) [I-e: Ar1=C6H5, Ar2=2,5-(CH3)2C6H3, 1-[3-{4-[(2,5-dimethylphenyl)phenylmethyl]-1-piperazinyl}propyl]-1,3-dihydro-2H-benzimidazol-2-one]

IC50 [3, 6]: 0.16 µg/mL (≈ 0.374 µM)
Structure (SMILES): O=c1[nH]c2ccccc2n1CCCN1CCN(C(c2ccccc2)c2ccccn2)CC1 (stereo not drawn) [I-e: Ar1=C6H5, Ar2=2-pyridinyl, 1,3-dihydro-1-[3-{4-[phenyl(2-pyridinyl)methyl]-1-piperazinyl}propyl]-2H-benzimidazol-2-one]
minimal effective dose ([2]; Table I-e): 2.5 mg/kg

IC50 [3, 6]: 0.08 µg/mL (≈ 0.187 µM)
Structure (SMILES): O=c1[nH]c2ccccc2n1CCCN1CCN(C(c2ccccc2)c2cccnc2)CC1 (stereo not drawn) [I-e: Ar1=C6H5, Ar2=3-pyridinyl, 1,3-dihydro-1-[3-{4-[phenyl(3-pyridinyl)methyl]-1-piperazinyl}propyl]-2H-benzimidazol-2-one]
minimal effective dose ([2]; Table I-e): < 2.5 mg/kg
